# Reference: PubChem BioAssay AID1963867 (Molecular Pharmacology Branch, DTP, NCI, 2024)
# Tested on: KRAS-mutant PDC tumor spheroid with HUVEC/MSC, viability
# Assay: Anticancer human tumor 327498-153-R-J2-PDC patient-derived uterine carcinosarcoma cell line growth inhibition [KRAS2]
# Details: for IC50: curve of first compound; for viability, T/C: stronger effect = lower value
# Procedure, shortened: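 Combination screen of spheroid viability in tumor-cell co-cultures with endothelial (HUVEC) and mesenchymal stem cell stroma. Each agent was tested in half-log dilutions, topping at clinical Cmax or at 10 microM without a known Cmax.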
# [1] = second compound 0.1 µM, first compound 0.0316 µM
# [2] = second compound 0.1 µM, first compound 0.1 µM
# [3] = second compound 0.1 µM, first compound 0.316 µM
# [4] = second compound 0.1 µM, first compound 1 µM
# [5] = second compound 0.1 µM, first compound 3.16 µM
# [6] = second compound 0.1 µM, first compound 10 µM
# [7] = second compound 0.316 µM, first compound 0.0316 µM
# [8] = second compound 0.316 µM, first compound 0.1 µM
# [9] = second compound 0.316 µM, first compound 0.316 µM
# [10] = second compound 0.316 µM, first compound 1 µM
# [11] = second compound 0.316 µM, first compound 3.16 µM
# [12] = second compound 0.316 µM, first compound 10 µM
# [13] = second compound 1 µM, first compound 0.0316 µM
# [14] = second compound 1 µM, first compound 0.1 µM
# [15] = second compound 1 µM, first compound 0.316 µM
# [16] = second compound 1 µM, first compound 1 µM
# [17] = second compound 1 µM, first compound 3.16 µM
# [18] = second compound 1 µM, first compound 10 µM
# [19] = second compound 3.16 µM, first compound 0.0316 µM
# [20] = second compound 3.16 µM, first compound 0.1 µM
# [21] = second compound 3.16 µM, first compound 0.316 µM
# [22] = second compound 3.16 µM, first compound 1 µM
# [23] = second compound 3.16 µM, first compound 3.16 µM
# [24] = second compound 3.16 µM, first compound 10 µM
# [25] = second compound 10 µM, first compound 0.0316 µM
# [26] = second compound 10 µM, first compound 0.1 µM
# [27] = second compound 10 µM, first compound 0.316 µM
# [28] = second compound 10 µM, first compound 1 µM
# [29] = second compound 10 µM, first compound 3.16 µM
# [30] = second compound 10 µM, first compound 10 µM
# 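Also: spheroids exposed to agents for seven days before reading.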
# 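For viability, T/C in this document: 100% = DMSO vehicle wells so lower means fewer viable cells.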
smiles,measurement,setting,value
CC(C)NCC(C(=O)N1CCN(c2ncnc3c2C(C)CC3O)CC1)c1ccc(Cl)cc1 (stereo not given) + COc1cc2nc(C)nc(NC(C)c3cc(N)cc(C(F)(F)F)c3)c2cc1OC1CCOC1,IC50,second compound 0.1 µM,195 nM
same,IC50,second compound 0.316 µM,102 nM
same,IC50,second compound 1 µM,90.7 nM
same,IC50,second compound 3.16 µM,< 31.6 nM
same,IC50,second compound 10 µM,< 31.6 nM
same,"viability, T/C",[1],70.8%
same,"viability, T/C",[2],57.7%
same,"viability, T/C",[3],44%
same,"viability, T/C",[4],26.3%
same,"viability, T/C",[5],9.54%
same,"viability, T/C",[6],9.87%
same,"viability, T/C",[7],62.5%
same,"viability, T/C",[8],49.5%
same,"viability, T/C",[9],34.4%
same,"viability, T/C",[10],21.7%
same,"viability, T/C",[11],8.09%
same,"viability, T/C",[12],9.57%
same,"viability, T/C",[13],60%
same,"viability, T/C",[14],51%
same,"viability, T/C",[15],28.8%
same,"viability, T/C",[16],17.7%
same,"viability, T/C",[17],7.32%
same,"viability, T/C",[18],3.46%
same,"viability, T/C",[19],54.4%
same,"viability, T/C",[20],42.1%
same,"viability, T/C",[21],43.6%
same,"viability, T/C",[22],14.2%
same,"viability, T/C",[23],8.44%
same,"viability, T/C",[24],8.27%
same,"viability, T/C",[25],37.8%
same,"viability, T/C",[26],27.3%
same,"viability, T/C",[27],16.6%
same,"viability, T/C",[28],5.51%
same,"viability, T/C",[29],0.16%
same,"viability, T/C",[30],0.34%
CC(C)n1nc(-c2ccc3oc(N)nc3c2)c2c(N)ncnc21 + COc1cc2nc(C)nc(NC(C)c3cc(N)cc(C(F)(F)F)c3)c2cc1OC1CCOC1,IC50,second compound 0.1 µM,4.34 nM
same,IC50,second compound 0.316 µM,2.29 nM
same,IC50,second compound 1 µM,1.98 nM
same,IC50,second compound 3.16 µM,0.824 nM
same,IC50,second compound 10 µM,< 0.316 nM
same,"viability, T/C","second compound 0.1 µM, first compound 0.000316 µM",77.5%
same,"viability, T/C","second compound 0.1 µM, first compound 0.001 µM",71.7%
same,"viability, T/C","second compound 0.1 µM, first compound 0.00316 µM",59.1%
same,"viability, T/C","second compound 0.1 µM, first compound 0.01 µM",27.3%
same,"viability, T/C",[1],10.2%
same,"viability, T/C",[2],6.27%
same,"viability, T/C","second compound 0.316 µM, first compound 0.000316 µM",71.5%
same,"viability, T/C","second compound 0.316 µM, first compound 0.001 µM",60.4%
same,"viability, T/C","second compound 0.316 µM, first compound 0.00316 µM",46.5%
same,"viability, T/C","second compound 0.316 µM, first compound 0.01 µM",23.3%
same,"viability, T/C",[7],8.8%
same,"viability, T/C",[8],6.67%
same,"viability, T/C","second compound 1 µM, first compound 0.000316 µM",60.2%
same,"viability, T/C","second compound 1 µM, first compound 0.001 µM",63.7%
same,"viability, T/C","second compound 1 µM, first compound 0.00316 µM",40.1%
same,"viability, T/C","second compound 1 µM, first compound 0.01 µM",26.3%
same,"viability, T/C",[13],8.62%
same,"viability, T/C",[14],6.87%
same,"viability, T/C","second compound 3.16 µM, first compound 0.000316 µM",52.6%
same,"viability, T/C","second compound 3.16 µM, first compound 0.001 µM",50.1%
same,"viability, T/C","second compound 3.16 µM, first compound 0.00316 µM",36.1%
same,"viability, T/C","second compound 3.16 µM, first compound 0.01 µM",17.1%
same,"viability, T/C",[19],7.65%
same,"viability, T/C",[20],4.15%
same,"viability, T/C","second compound 10 µM, first compound 0.000316 µM",38.8%
same,"viability, T/C","second compound 10 µM, first compound 0.001 µM",35.5%
same,"viability, T/C","second compound 10 µM, first compound 0.00316 µM",23.4%
same,"viability, T/C","second compound 10 µM, first compound 0.01 µM",17.4%
same,"viability, T/C",[25],3.51%
same,"viability, T/C",[26],1.94%
CC1(C)CCC(CN2CCN(c3ccc(C(=O)NS(=O)(=O)c4ccc(NCC5CCOCC5)c([N+](=O)[O-])c4)c(Oc4cnc5[nH]ccc5c4)c3)CC2)=C(c2ccc(Cl)cc2)C1 + COc1cc2nc(C)nc(NC(C)c3cc(N)cc(C(F)(F)F)c3)c2cc1OC1CCOC1,IC50,second compound 0.1 µM,3200 nM
same,IC50,second compound 0.316 µM,2270 nM
same,IC50,second compound 1 µM,2010 nM
same,IC50,second compound 3.16 µM,1490 nM
same,IC50,second compound 10 µM,178 nM
same,"viability, T/C",[1],78.8%
same,"viability, T/C",[2],80.5%
same,"viability, T/C",[3],76.9%
same,"viability, T/C",[4],77.3%
same,"viability, T/C",[5],50.5%
same,"viability, T/C",[6],4.9%
same,"viability, T/C",[7],74.3%
same,"viability, T/C",[8],64.3%
same,"viability, T/C",[9],75.4%
same,"viability, T/C",[10],71.1%
same,"viability, T/C",[11],41.5%
same,"viability, T/C",[12],1.82%
same,"viability, T/C",[13],74.1%
same,"viability, T/C",[14],72%
same,"viability, T/C",[15],65.9%
same,"viability, T/C",[16],67.8%
same,"viability, T/C",[17],38.8%
same,"viability, T/C",[18],0.73%
same,"viability, T/C",[19],65.2%
same,"viability, T/C",[20],65.3%
same,"viability, T/C",[21],66.7%
same,"viability, T/C",[22],61.5%
same,"viability, T/C",[23],28.4%
same,"viability, T/C",[24],3.34%
same,"viability, T/C",[25],53%
same,"viability, T/C",[26],54.6%
same,"viability, T/C",[27],42.1%
same,"viability, T/C",[28],39.9%
same,"viability, T/C",[29],11.5%
same,"viability, T/C",[30],0.44%
